Values of other authors as cited in patent US7504230B2, “Method of identifying a useful set of signal transduction proteins from a multiplicity of potentially useful proteins” (Trelolis Bioscience, Inc., priority 1999, dated 2009).

How the values were obtained:
PKC isoenzyme η = target: T1, PKC isoenzyme η (Homo sapiens, UniProt P24723); conditions: hDMEC, after stimulation with PMA; from nucleus
T1 construct: endogenous in cells; host or cells: hDMEC (human dermal microvascular endothelial cells)

PKC isoenzyme β = target: T2, PKC isoenzyme β (Homo sapiens, UniProt P05771); conditions: hDMEC, after stimulation with PMA; from cytosol (ditto mark)
T2 construct: endogenous in cells; host or cells: hDMEC (human dermal microvascular endothelial cells)

PKC isoenzyme ζ = target: T3, PKC isoenzyme ζ (Homo sapiens, UniProt Q05513); conditions: hDMEC, after stimulation with PMA; from fibrillar structures
T3 construct: endogenous in cells; host or cells: hDMEC (human dermal microvascular endothelial cells)
T3 sequence (Q05513 1-592): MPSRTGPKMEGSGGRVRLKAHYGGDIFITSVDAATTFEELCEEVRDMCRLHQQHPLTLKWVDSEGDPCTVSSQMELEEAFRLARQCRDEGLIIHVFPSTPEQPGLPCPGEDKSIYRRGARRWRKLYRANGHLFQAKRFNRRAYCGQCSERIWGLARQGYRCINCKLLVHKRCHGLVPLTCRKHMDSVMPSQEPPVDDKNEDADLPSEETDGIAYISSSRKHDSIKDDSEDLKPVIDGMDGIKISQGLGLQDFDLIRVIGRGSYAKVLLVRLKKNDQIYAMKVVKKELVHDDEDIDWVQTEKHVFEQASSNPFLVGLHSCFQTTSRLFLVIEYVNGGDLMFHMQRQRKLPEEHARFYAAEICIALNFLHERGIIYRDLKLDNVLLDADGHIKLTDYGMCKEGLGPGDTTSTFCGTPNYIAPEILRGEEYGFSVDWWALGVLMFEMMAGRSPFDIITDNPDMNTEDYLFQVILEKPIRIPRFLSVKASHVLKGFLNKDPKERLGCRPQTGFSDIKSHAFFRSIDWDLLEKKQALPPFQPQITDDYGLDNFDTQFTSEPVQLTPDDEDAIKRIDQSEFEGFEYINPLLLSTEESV

[1] = system: fusion of the C1 region with green fluorescent protein (GFP); conditions: from a diffuse cytoplasmic localization
PKC isoenzyme βII = target: T4, PKC isoenzyme βII (Homo sapiens, UniProt P05771); conditions: hDMEC, after stimulation with PMA; from nucleus
T4 construct: endogenous in cells; host or cells: hDMEC (human dermal microvascular endothelial cells)

PKC isoenzyme δ = target: T5, PKC isoenzyme δ (Homo sapiens, UniProt Q05655); conditions: hDMEC, after stimulation with PMA; from cytosol
T5 construct: endogenous in cells; host or cells: hDMEC (human dermal microvascular endothelial cells)

PKC isoenzyme ε = target: T6, PKC isoenzyme ε (Homo sapiens, UniProt Q02156); conditions: hDMEC, after stimulation with PMA; from periphery
T6 construct: endogenous in cells; host or cells: hDMEC (human dermal microvascular endothelial cells)
T6 sequence (Q02156 1-737): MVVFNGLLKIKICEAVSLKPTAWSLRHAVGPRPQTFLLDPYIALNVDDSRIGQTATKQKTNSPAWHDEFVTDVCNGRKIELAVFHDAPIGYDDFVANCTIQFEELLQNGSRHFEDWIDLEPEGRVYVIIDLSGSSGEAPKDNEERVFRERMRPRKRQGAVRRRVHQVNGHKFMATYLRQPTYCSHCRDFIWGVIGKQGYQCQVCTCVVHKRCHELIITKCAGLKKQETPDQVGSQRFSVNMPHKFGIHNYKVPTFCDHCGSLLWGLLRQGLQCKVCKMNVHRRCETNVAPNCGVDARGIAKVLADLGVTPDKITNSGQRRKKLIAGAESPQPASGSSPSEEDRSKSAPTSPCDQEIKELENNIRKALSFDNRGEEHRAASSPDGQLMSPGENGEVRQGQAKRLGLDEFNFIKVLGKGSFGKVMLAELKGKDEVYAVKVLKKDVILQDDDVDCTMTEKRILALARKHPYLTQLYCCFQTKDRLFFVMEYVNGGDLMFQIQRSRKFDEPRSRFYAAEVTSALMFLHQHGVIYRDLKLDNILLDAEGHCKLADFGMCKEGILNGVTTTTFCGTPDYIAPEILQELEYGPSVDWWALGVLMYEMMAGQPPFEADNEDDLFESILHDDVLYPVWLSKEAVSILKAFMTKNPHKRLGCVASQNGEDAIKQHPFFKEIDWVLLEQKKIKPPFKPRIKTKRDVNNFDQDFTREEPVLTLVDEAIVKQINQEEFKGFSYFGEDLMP

PKC isoenzyme α = target: T7, PKC isoenzyme α (Homo sapiens, UniProt P17252); conditions: hDMEC, after stimulation with PMA; from cytosol
T7 construct: endogenous in cells; host or cells: hDMEC (human dermal microvascular endothelial cells)

T4 sequence (P05771 1-673 isoform P05771-2): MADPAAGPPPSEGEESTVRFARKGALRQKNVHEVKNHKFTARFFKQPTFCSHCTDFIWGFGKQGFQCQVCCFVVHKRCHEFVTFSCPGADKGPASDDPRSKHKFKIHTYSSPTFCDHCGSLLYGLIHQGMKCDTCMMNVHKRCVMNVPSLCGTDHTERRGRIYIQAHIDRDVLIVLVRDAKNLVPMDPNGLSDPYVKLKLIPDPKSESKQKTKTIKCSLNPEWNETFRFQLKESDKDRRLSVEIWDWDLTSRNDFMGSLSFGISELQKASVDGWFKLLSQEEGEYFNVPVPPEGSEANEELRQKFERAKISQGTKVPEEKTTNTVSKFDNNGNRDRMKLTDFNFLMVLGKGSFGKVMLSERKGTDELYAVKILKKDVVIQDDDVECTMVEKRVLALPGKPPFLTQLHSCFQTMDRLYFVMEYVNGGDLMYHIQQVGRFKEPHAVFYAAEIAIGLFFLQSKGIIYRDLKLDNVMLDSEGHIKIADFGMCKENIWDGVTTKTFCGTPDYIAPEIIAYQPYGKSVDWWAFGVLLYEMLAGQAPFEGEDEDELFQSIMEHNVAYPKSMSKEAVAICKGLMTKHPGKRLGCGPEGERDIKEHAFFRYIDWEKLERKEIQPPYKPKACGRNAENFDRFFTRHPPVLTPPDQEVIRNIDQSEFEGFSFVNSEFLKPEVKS
T2 sequence (P05771 whole entry): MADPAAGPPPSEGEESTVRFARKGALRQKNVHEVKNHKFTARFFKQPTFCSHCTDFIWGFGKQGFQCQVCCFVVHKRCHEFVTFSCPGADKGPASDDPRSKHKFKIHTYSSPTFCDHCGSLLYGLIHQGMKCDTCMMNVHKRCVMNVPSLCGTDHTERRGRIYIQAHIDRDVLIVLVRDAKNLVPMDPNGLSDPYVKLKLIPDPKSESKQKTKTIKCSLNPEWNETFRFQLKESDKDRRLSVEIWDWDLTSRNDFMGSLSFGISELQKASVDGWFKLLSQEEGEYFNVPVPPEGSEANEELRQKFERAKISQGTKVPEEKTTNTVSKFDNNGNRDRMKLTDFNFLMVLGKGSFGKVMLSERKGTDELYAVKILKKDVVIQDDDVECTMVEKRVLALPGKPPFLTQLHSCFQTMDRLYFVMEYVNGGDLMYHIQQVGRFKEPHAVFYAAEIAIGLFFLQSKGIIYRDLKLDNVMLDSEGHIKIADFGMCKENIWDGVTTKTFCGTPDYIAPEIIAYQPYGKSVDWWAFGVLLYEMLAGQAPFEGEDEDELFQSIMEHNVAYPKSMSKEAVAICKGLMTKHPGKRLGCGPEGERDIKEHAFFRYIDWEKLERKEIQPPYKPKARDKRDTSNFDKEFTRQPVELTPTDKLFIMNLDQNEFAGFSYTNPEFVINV
T5 sequence (Q05655 whole entry): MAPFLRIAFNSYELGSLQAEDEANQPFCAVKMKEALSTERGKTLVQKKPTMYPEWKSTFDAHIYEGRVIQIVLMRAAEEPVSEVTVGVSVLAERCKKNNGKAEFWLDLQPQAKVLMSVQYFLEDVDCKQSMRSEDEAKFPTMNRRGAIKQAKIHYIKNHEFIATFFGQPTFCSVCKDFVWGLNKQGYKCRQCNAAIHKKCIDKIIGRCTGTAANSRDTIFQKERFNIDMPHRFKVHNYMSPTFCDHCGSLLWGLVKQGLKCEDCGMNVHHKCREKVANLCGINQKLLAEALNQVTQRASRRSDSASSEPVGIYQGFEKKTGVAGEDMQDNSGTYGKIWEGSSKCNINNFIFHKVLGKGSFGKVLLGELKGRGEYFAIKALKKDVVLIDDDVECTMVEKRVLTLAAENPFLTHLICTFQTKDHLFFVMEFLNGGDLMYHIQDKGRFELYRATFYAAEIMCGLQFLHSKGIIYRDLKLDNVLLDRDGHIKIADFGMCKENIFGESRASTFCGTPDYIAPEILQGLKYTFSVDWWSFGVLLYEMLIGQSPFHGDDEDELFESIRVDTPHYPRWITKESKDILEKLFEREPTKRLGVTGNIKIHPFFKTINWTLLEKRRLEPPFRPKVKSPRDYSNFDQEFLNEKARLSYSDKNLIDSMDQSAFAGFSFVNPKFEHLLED
T1 sequence (P24723 whole entry): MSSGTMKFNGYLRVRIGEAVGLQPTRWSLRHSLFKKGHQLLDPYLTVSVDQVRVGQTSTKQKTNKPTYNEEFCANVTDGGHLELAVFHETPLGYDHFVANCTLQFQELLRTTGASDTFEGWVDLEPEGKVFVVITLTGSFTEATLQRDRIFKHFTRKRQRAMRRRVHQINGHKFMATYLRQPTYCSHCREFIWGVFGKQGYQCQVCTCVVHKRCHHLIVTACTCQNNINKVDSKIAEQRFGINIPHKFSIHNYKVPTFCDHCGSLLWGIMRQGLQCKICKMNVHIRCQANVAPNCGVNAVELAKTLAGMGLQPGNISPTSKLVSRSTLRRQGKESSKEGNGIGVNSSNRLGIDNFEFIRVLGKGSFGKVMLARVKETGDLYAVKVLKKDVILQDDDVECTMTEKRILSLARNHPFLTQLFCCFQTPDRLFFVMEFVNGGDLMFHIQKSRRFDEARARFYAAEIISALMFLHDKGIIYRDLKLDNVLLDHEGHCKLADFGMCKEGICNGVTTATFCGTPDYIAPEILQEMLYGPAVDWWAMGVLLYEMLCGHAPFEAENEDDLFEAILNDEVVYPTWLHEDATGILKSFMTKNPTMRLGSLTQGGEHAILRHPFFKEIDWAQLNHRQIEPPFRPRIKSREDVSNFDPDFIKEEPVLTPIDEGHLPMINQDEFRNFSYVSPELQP

Question: Which “Localization after stimulation (To)” value (PKC isoenzyme η) does the source give for `CCCCCCCCCCCCCC(=O)O[C@@H]1[C@@H](C)[C@@]2(O)[C@@H](C=C(CO)C[C@]3(O)C(=O)C(C)=C[C@@H]23)[C@@H]2C(C)(C)[C@]12OC(C)=O` [PMA, phorbol myristic acetate] here?
Answer: no change

Question: And the “Localization after stimulation (To)” value (PKC isoenzyme β)?
Answer: nucleus

Question: And the “Localization after stimulation (To)” value (PKC isoenzyme ζ)?
Answer: no change

Question: What about the “Localization of C1-GFP fusion protein in response to PMA” value [1] of the same molecule?
Answer: membrane bound

Question: And the “Localization after stimulation (To)” value (PKC isoenzyme βII)?
Answer: filamentous structures

Question: What about the “Localization after stimulation (To)” value (PKC isoenzyme δ) of the same molecule?
Answer: cytoskeletal elements

Question: And the “Localization after stimulation (To)” value (PKC isoenzyme ε)?
Answer: perinucleus

Question: What about the “Localization after stimulation (To)” value (PKC isoenzyme α) of the same molecule?
Answer: perinuclear membrane
